Reference: publication PMC9780825, “Combining mKate2-Kv1.3 Channel and Atto488-Hongotoxin for the Studies of Peptide Pore Blockers on Living Eukaryotic Cells” (Toxins, 2022)
“Also recorded” adds a separate entry of the source. Residues, ends and D or L forms follow the SMILES beside them.

Columns and labels:
[1] = tested on: mKate2-tagged Kv1.3 channels; assay: A-HgTx wash-off and effect on channel distribution, mKate2-tagged Kv1.3 in HEK293 cells; assay type: binding, human
Method: (§1) Figure 4 Confocal imaging of A-HgTx interactions (green) with mKate2-tagged Kv1.3 channels (red) transiently expressed in HEK293 cells. (A–D) Binding (A,B) of A-HgTx (2 nM) to Kv1.3-K and its displacement (C,D) by HgTx1 (40 nM). (E–H) Binding (E,F) of A-HgTx (2 nM) to K-Kv1.3 and its displacement (G,H) by HgTx1 (40 nM). (I–L) Binding (I,J) of A-HgTx (2 nM) to K-ΔKv1.3 and its displacement (K,L) by HgTx1 (40 nM). (M,N) Control measurement of the binding of A-HgTx (2 nM) to intact (no transfection) HEK293 cells. (O,P) Control measurement of the background signal in the wavelength range corresponding to the A-HgTx emission (O) from HEK293 cells expressing K-ΔKv1.3 (without addition of A-HgTx). The scale bar is equal to 20 μm. (A,E,I,M,C,G,K,O) Distribution of A-HgTx. (B,F,J,N,D,H,L,P) Distribution of mKate2-tagged Kv1.3 channels.
In A-HgTx binding experiments, cells were incubated with A-HgTx (0.15–4 nM) for 30 min (37 °C, 5% CO2) in the complete medium. […]
(§2) Fluorescence of mKate2-fused hKv1.3 was excited at the 561 nm wavelength and recorded in the 650–700 nm range. Fluorescence of A-HgTx was excited at the 488 nm wavelength and recorded in the 495–535 nm range. Distributions of A-HgTx and mKate2 fluorescence in cells were imaged using sequential scanning to avoid interference of intrinsic cellular fluorescence excited at the 488 nm with the mKate2 fluorescence.

[2] = target: T1, K-ΔKv1.3 (N-terminally truncated human Kv1.3 tagged with mKate2) (Homo sapiens, UniProt P22001); assay: Whole-cell patch-clamp, K-ΔKv1.3 expressed in Neuro-2A cells; assay type: cell-based; parameters: expressed in transfected cells; details: N2a, +50 mV, 20–25 °C, pH 7.4, mean ± SEM
Method: The K-ΔKv1.3 channel and A-HgTx were characterized by a whole-cell patch-clamp technique. Taking into account that “the kinetic properties of the homomeric Kv channels are largely consistent across host cell lines” [42], we studied K-ΔKv1.3 presented at the membrane of mouse Neuro-2A neuroblastoma cells, which are routinely used in our electrophysiological experiments.
The ion currents were analyzed in the whole-cell configuration by depolarizing steps from −70 to 70 mV in 20 mV increments from a holding potential of −40 mV.
Test pulses having duration of 200 ms were applied stepwise with an interval of 20 s with a step of 20 mV from −70 to +70 mV then returning to a holding potential. […] Data were averaged (mean ± SEM) over ten (E) and twelve (F) cells.
(A,B) Representative series of currents before (A) and after addition of 2 nM A-HgTx (B). […]
K-ΔKv1.3-channel ion currents were recorded by the patch-clamp technique using an EPC-10 amplifier (HEKA Elektronik, Germany) in a standard whole-cell configuration. […]
Briefly, in 24–48 h after transfection, cover glasses with attached Neuro2a cells were placed in a chamber with an extracellular solution (mM): 140 NaCl, 2.8 KCl, 2 MgCl2, 2 CaCl2, 10 HEPES and 10 glucose (pH 7.4) and perfused continuously. Selection of cells for the measurements was guided by membrane fluorescence of K-ΔKv1.3. […]

[3] = target: T1, K-ΔKv1.3 (N-terminally truncated human Kv1.3 tagged with mKate2); assay: Confocal imaging of A-HgTx binding and displacement, K-ΔKv1.3 in Neuro-2A cells; parameters: expressed in transfected cells; host or cells: HEK293 (transient transfection with pmKate2-KCNA3-del); details: 2 nM A-HgTx
Method: Mouse Neuro-2A neuroblastoma cells were purchased from the Russian collection of cell cultures (Institute of Cytology, Saint Petersburg, Russia). Cells were cultured in DMEM (Paneco, Russia) supplemented with 10% fetal bovine serum (PAA Laboratories, Austria) and penicillin–streptomycin 100 U/mL. Cells were subcultured twice a week. Cells were plated at a density of 3×10^4 cells per well on cover glasses coated with poly-D-lysine and 24 h latter subjected to the transfection with plasmid pmKate2-KCNA3-del as described above.
Figure S5. Confocal imaging of A-HgTx interactions with K-ΔKv1.3channels transiently expressed in Neuro-2A cells. (A, B) Distri-
(20 nM) from the complexes with K-ΔKv1.3 at the membrane of cells. Scale bar is 20 µm. Green and red colors – fluorescence of A-
HgTx and K-ΔKv1.3, respectively.
Figure S6. Concentration dependence of A-HgTx binding to K-Kv1.3 on a cell membrane that was measured as the dependence of
Rav on the concentration L of A-HgTx added to HEK293 cells transiently transfected with K-Kv1.3.
(also on this page, place not known: Neuro -2A K -ΔKv1.3. A -HgTx K -ΔKv1.3 0.0 0.5 1.0 1.5 2.0 0.0 0.5 1.0 1.5 L, nM Rav) […]

[4] = target: T1, K-ΔKv1.3 (N-terminally truncated human Kv1.3 tagged with mKate2); assay: Confocal imaging of A-HgTx binding and displacement, K-ΔKv1.3 in HEK293 cells; parameters: expressed in transfected cells; host or cells: HEK293 (transient transfection with pmKate2-KCNA3-del)
Method: as §1
(§3) KCNA3 gene encoding human Kv1.3 channel (hKv1.3, Accession number NP_002223.3) was a generous gift from Dr. A. Vassilevski. […]
as §2

[5] = target: T2, K-Kv1.3 (human Kv1.3 N-terminally tagged with mKate2) (Homo sapiens, UniProt P22001); assay: Confocal imaging of A-HgTx binding and displacement, K-Kv1.3 in HEK293 cells
T2 construct: membrane expression of the full-length human Kv1.3 was poor in X. oocytes, deletion of N-terminal M1-D52 residues boosted; expressed in transfected cells; host or cells: HEK293 (transient transfection with pmKate2-KCNA3)
Method: as §1, §3, §2

[6] = tested on: Kv1.3-K (human Kv1.3 C-terminally tagged with mKate2); assay: Confocal imaging of A-HgTx binding and displacement, Kv1.3-K in HEK293 cells
Method: as §1, with “channels. […]” for “channels.”
as §2

[7] = tested on: intact HEK293 cells that do not express mKate2-tagged Kv1.3; assay: Control: A-HgTx binding to intact HEK293 cells; details: 2 nM A-HgTx; no transfection; confocal imaging
Method: as §1, with “channels. […]” for “channels.”
as §2

[8] = target: T1, K-ΔKv1.3 (N-terminally truncated human Kv1.3 tagged with mKate2); assay: Fluorescent competitive binding assay (FCBA), displacement of A-HgTx from K-ΔKv1.3; parameters: expressed in transfected cells; host or cells: HEK293 (transient transfection with pmKate2-KCNA3-del); details: living HEK293 cells; 2 nM A-HgTx; result in words
Description: To quantitatively characterize formation of complexes between A-HgTx and K-ΔKv1.3 on cell membranes, the confocal images of A-HgTx bound at the membrane of the K-ΔKv1.3 presenting cells were subjected to the treatment procedure as follows. Regions of interest (ROIs) corresponding to the plasma membranes stained with K-ΔKv1.3 were selected. Using a set of these ROIs and a threshold procedure (to null a background signal from pixels without K-ΔKv1.3 signal), the binary (0;1) mask that describes membranous localization of K-ΔKv1.3 was created. The images of K-ΔKv1.3 and A-HgTx distribution were multiplied by the corresponding mask. Next, average intensities of fluorescence of K-ΔKv1.3 (Ici) and A-HgTx (Ili) were calculated for each ROI (i.e., for each i-cell), and a ratio Ri was calculated as follows. Ri = (Ili − Ilb)/(Ici − Icb) (1) where Ilb and Icb are intensities of background signals in the fluorescent images of A-HgTx and Kv1.3 channels, respectively. Calculating Ri (i.e., normalizing A-HgTx intensity to that of K-ΔKv1.3), a correction was introduced for variations in a level of K-ΔKv1.3 expression on the membrane of particular cells. Ri values of 15–20 cells were averaged to obtain the Rav value, and a standard deviation was calculated.
Concentration of A-HgTx was 2 nM. Concentration of pore blockers C varied as indicated in the graph.
When Kd of A-HgTx and IC50 for the studied compound are known, the apparent dissociation constant Kap of complexes between the compound and channel can be calculated using the Cheng-Prusoff equation [50]:Kap = IC50/(1 + L/Kd)(4) where L is the concentration of A-HgTx in the competitive binding experiment.
In A-HgTx binding experiments, cells were incubated with A-HgTx (0.15–4 nM) for 30 min (37 °C, 5% CO2) in the complete medium. In competitive binding experiments, cells were incubated with A-HgTx (2 nM) and selected pore blocker at variable concentrations (0.5–100 nM for recombinant peptides and 1–20 mM for TEA) for 30 min (37 °C, 5% CO2) in the complete medium.
Experiments with HEK293 cells were performed with a laser scanning confocal microscope Leica-SP2 (Leica Microsystems GmbH, Wetzlar, Germany). The water-immersion 63×/1.2 NA HCX PL APO objective was used.
Each experimental point in the curves describing interaction A-HgTx with mKate2-tagged Kv1.3 channels is an average over 15–25 treated images of cells. […]

[9] = 2 nM A-HgTx, living HEK293 cells
[10] = HgTx1 40 nM vs A-HgTx 2 nM, HEK293 cells

T1 sequence (P22001 53-575 limits assumed, stated change not applied): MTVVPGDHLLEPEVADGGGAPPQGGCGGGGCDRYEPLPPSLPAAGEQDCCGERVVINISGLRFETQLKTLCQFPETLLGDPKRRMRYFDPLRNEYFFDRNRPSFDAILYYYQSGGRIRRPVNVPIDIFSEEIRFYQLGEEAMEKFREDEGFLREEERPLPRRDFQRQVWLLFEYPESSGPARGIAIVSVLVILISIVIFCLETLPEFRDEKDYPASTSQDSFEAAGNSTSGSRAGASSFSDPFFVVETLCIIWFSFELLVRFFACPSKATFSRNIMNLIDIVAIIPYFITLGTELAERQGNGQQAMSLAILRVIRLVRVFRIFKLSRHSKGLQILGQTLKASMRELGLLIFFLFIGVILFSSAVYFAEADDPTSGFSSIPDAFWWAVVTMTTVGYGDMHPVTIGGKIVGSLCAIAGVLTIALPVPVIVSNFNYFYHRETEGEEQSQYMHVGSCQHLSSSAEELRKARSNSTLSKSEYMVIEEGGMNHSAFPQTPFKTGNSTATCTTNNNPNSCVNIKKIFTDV
T2 sequence (P22001 whole entry, the tested form may be a part): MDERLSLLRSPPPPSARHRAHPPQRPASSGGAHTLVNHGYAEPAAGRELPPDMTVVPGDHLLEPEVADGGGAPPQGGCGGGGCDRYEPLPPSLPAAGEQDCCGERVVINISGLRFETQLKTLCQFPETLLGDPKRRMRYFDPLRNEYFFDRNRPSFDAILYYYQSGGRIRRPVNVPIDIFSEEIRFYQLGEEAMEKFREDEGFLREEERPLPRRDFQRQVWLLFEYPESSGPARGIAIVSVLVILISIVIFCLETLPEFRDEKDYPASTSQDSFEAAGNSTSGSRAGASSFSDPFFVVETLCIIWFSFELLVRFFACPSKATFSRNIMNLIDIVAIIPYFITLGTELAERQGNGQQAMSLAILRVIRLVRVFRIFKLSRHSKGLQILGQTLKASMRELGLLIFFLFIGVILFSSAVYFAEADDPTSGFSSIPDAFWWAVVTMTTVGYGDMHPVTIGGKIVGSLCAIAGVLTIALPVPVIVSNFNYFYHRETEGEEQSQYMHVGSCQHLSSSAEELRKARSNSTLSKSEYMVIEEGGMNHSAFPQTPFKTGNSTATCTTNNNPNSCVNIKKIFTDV

SMILES	effect of A-HgTx binding on membrane distribution of the Kv1.3 channels ([1]; nano-molar A-HgTx, HEK293 cells, confocal imaging)	dissociation of A-HgTx from the cell membrane on washing ([1]; washing HEK293 cells with fresh medium, data not shown)	inhibition at 0.002 µM ([2]; 2 nM A-HgTx, n = 10, read-out: inhibition of K-ΔKv1.3 currents by A-HgTx)	inhibition at 0.01 µM ([2]; 10 nM A-HgTx, n = 3, read-out: inhibition of K-ΔKv1.3 currents by A-HgTx)	binding of A-HgTx at the membrane of K-ΔKv1.3 expressing Neuro-2A cells [3]	binding of A-HgTx to K-ΔKv1.3 [4, 9]	binding of A-HgTx to K-Kv1.3 [5, 9]	binding of A-HgTx to Kv1.3-K [6, 9]	binding of A-HgTx at the membrane of intact HEK293 cells (non-specific binding) [7]	displacement of A-HgTx from the complexes with K-ΔKv1.3 [8]	displacement of A-HgTx from K-ΔKv1.3 [4, 10]	displacement of A-HgTx from K-Kv1.3 [5, 10]	displacement of A-HgTx from Kv1.3-K [6, 10]
CC[C@H](C)[C@@H]1NC(=O)CNC(=O)[C@H](Cc2ccccc2)NC(=O)[C@H](CCC(N)=O)NC(=O)[C@H](C)NC(=O)[C@H](CCCCN)NC(=O)[C@@H]2CSSC[C@@H](C(=O)N[C@@H](Cc3ccc(O)cc3)C(=O)N3CCC[C@H]3C(=O)N[C@@H](Cc3c[nH]cn3)C(=O)O)NC(=O)[C@H](CCCCN)NC(=O)[C@@H]3CSSC[C@H](NC(=O)[C@H](CCC(N)=O)NC(=O)[C@H](CCCCN)NC(=O)[C@@H]4CCCN4C(=O)[C@H](CO)NC(=O)[C@H]([C@@H](C)O)NC(=O)[C@@H](NC(=O)[C@H](CCCCN)NC(=O)[C@@H](NC(=O)[C@H](CC(=O)O)NC(=O)[C@@H](NC(=O)[C@@H](NC(=O)[C@@H](NC(=O)CCCN(C)C(=O)c4ccccc4-c4c5ccc(=N)c(S(=O)(=O)O)c-5oc5c(S(=O)(=O)O)c(N)ccc45)[C@@H](C)O)C(C)C)[C@@H](C)CC)C(C)C)CSSC[C@H](NC(=O)[C@H](CCCCN)NC(=O)[C@H](C)NC(=O)CNC(=O)[C@H](C)NC(=O)[C@H](CCCNC(=N)N)NC1=O)C(=O)N[C@@H](CCSC)C(=O)N[C@@H](CC(N)=O)C(=O)NCC(=O)N[C@@H](CCCCN)C(=O)N3)C(=O)N[C@@H](CC(C)C)C(=O)N1CCC[C@H]1C(=O)N1CCC[C@H]1C(=O)N2 [A-HgTx] (HELM PEPTIDE1{[N=c1ccc2c(-c3ccccc3C(=O)[*:2])c3ccc(N)c(S(=O)(=O)O)c3oc-2c1S(=O)(=O)O].[CN(CCCC(=O)[*:2])[*:1]].T.V.I.D.V.K.C.T.S.P.K.Q.C.L.P.P.C.K.A.Q.F.G.I.R.A.G.A.K.C.M.N.G.K.C.K.C.Y.P.H}$PEPTIDE1,PEPTIDE1,9:R3-31:R3|PEPTIDE1,PEPTIDE1,15:R3-36:R3|PEPTIDE1,PEPTIDE1,19:R3-38:R3$$$V2.0; C-terminus assumed)	does not lead to noticeable changes	rapid (in a few minutes) dissociation	42 ± 6%	83 ± 3%	bound at the membrane of cells expressing K-ΔKv1.3	bind A-HgTx	bind A-HgTx	bind A-HgTx	negligible non-specific binding; also recorded: No binding of A-HgTx was observed				
CC[C@H](C)[C@@H]1NC(=O)CNC(=O)[C@H](Cc2ccccc2)NC(=O)[C@H](CCC(N)=O)NC(=O)[C@H](C)NC(=O)[C@H](CCCCN)NC(=O)[C@@H]2CSSC[C@@H](C(=O)N[C@@H](Cc3ccc(O)cc3)C(=O)N3CCC[C@H]3C(=O)N[C@@H](Cc3c[nH]cn3)C(=O)O)NC(=O)[C@H](CCCCN)NC(=O)[C@@H]3CSSC[C@H](NC(=O)[C@H](CCC(N)=O)NC(=O)[C@H](CCCCN)NC(=O)[C@@H]4CCCN4C(=O)[C@H](CO)NC(=O)[C@H]([C@@H](C)O)NC(=O)[C@@H](NC(=O)[C@H](CCCCN)NC(=O)[C@@H](NC(=O)[C@H](CC(=O)O)NC(=O)[C@@H](NC(=O)[C@@H](NC(=O)[C@@H](N)[C@@H](C)O)C(C)C)[C@@H](C)CC)C(C)C)CSSC[C@H](NC(=O)[C@H](CCCCN)NC(=O)[C@H](C)NC(=O)CNC(=O)[C@H](C)NC(=O)[C@H](CCCNC(=N)N)NC1=O)C(=O)N[C@@H](CCSC)C(=O)N[C@@H](CC(N)=O)C(=O)NCC(=O)N[C@@H](CCCCN)C(=O)N3)C(=O)N[C@@H](CC(C)C)C(=O)N1CCC[C@H]1C(=O)N1CCC[C@H]1C(=O)N2 [HgTx1, hongotoxin 1, reference compound] (HELM PEPTIDE1{T.V.I.D.V.K.C.T.S.P.K.Q.C.L.P.P.C.K.A.Q.F.G.I.R.A.G.A.K.C.M.N.G.K.C.K.C.Y.P.H}$PEPTIDE1,PEPTIDE1,7:R3-29:R3|PEPTIDE1,PEPTIDE1,13:R3-34:R3|PEPTIDE1,PEPTIDE1,17:R3-36:R3$$$V2.0; N-terminus and C-terminus assumed)										displaced from the complexes with K-ΔKv1.3	displaces bound A-HgTx	displaces bound A-HgTx	displaces bound A-HgTx
